Toxic doses and inconclusive results are not listed. No stated cut-off is given here; in the data, active means T/C of 150% or more; inactive means T/C below 125%.
System: L1210 leukemia ip in BDF1 mice, survival T/C
Assay: NCI In Vivo Anticancer Drug Screen. Data for tumor model L1210 Leukemia (intraperitoneal) in B6D2F1 (BDF1) mice
Settings: endpoint: mean survival time, higher = longer survival
Method in brief: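 Mice bearing the transplanted tumor received compound or vehicle. Survival of the treated group was divided by that of the vehicle-treated control group to give the ratio.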

[1] = dose: 100.0 mg/kg/injection, schedule: Q01DX001 (ip), vehicle: carboxymethylcellulose (CMC)
[2] = dose: 200.0 mg/kg/injection, schedule: Q01DX001 (ip), vehicle: carboxymethylcellulose (CMC)
[3] = dose: 400.0 mg/kg/injection, schedule: Q01DX001 (ip), vehicle: carboxymethylcellulose (CMC)
[4] = dose: 100.0 mg/kg/injection, schedule: Q04DX002 (ip), vehicle: Klucel (hydroxypropylcellulose) (HPC)
[5] = dose: 200.0 mg/kg/injection, schedule: Q04DX002 (ip), vehicle: Klucel (hydroxypropylcellulose) (HPC)
[6] = dose: 400.0 mg/kg/injection, schedule: Q04DX002 (ip), vehicle: Klucel (hydroxypropylcellulose) (HPC)

Measured: T/C

CC(=N\NS(=O)(=O)c1ccc(C)cc1)/C(C)=N/NS(=O)(=O)c1ccc(C)cc1
inactive: dose: 75.0 mg/kg/injection, schedule: Q01DX001 (ip), vehicle: saline 87 % of control | dose: 150.0 mg/kg/injection, schedule: Q01DX001 (ip), vehicle: saline 89 % of control | dose: 300.0 mg/kg/injection, schedule: Q01DX001 (ip), vehicle: saline 90 % of control

O=C(O)CCC(=O)Oc1ccccc1
inactive: dose: 100.0 mg/kg/injection, schedule: Q04DX003 (ip), vehicle: other 92 % of control | dose: 200.0 mg/kg/injection, schedule: Q04DX003 (ip), vehicle: other 106 % of control

COc1ccc(-c2ccc(OC)cc2[N+](=O)[O-])c([N+](=O)[O-])c1
inactive: [1] 100 % of control | [2] 100 % of control | [3] 102 % of control

CC(=O)Oc1cc(C(C)=O)c(O)c2ccccc12
inactive: dose: 100.0 mg/kg/injection, schedule: Q01DX001 (ip), vehicle: water 95 % of control | dose: 200.0 mg/kg/injection, schedule: Q01DX001 (ip), vehicle: water 93 % of control

C[N+]1(N)CCCCCC1
inactive: dose: 100.0 mg/kg/injection, schedule: Q04DX002 (ip), vehicle: saline 94 % of control | dose: 200.0 mg/kg/injection, schedule: Q04DX002 (ip), vehicle: saline 113 % of control | dose: 400.0 mg/kg/injection, schedule: Q04DX002 (ip), vehicle: saline 87 % of control

Nc1nc(N)c2nc3c(nc2n1)C(=O)N(c1ccc(C(=O)NC(CCC(=O)O)C(=O)O)cc1)C3 (stereo not given)
inactive: dose: 100.0 mg/kg/injection, schedule: Q01DX009 (ip), vehicle: saline 94 % of control | dose: 200.0 mg/kg/injection, schedule: Q01DX009 (ip), vehicle: saline 98 % of control | dose: 400.0 mg/kg/injection, schedule: Q01DX009 (ip), vehicle: saline 86 % of control

Oc1ccc2[nH]c3c(c2c1)C[P+](Cc1cccc2ccccc12)(c1ccccc1)CC3 (stereo not given)
inactive: dose: 100.0 mg/kg/injection, schedule: Q01DX001 (ip), vehicle: Klucel (hydroxypropylcellulose) (HPC) 98 % of control | dose: 200.0 mg/kg/injection, schedule: Q01DX001 (ip), vehicle: Klucel (hydroxypropylcellulose) (HPC) 93 % of control | dose: 400.0 mg/kg/injection, schedule: Q01DX001 (ip), vehicle: Klucel (hydroxypropylcellulose) (HPC) 96 % of control

O=C(O)c1cc(Br)c(C(=O)O)cc1Br
inactive: dose: 100.0 mg/kg/injection, schedule: Q01DX001 (ip), vehicle: saline 100 % of control | dose: 200.0 mg/kg/injection, schedule: Q01DX001 (ip), vehicle: saline 102 % of control | dose: 400.0 mg/kg/injection, schedule: Q01DX001 (ip), vehicle: saline 96 % of control

CC1C(c2ccccc2)OCN1CN1C(=O)C=CC1=O (stereo not given) (tested in a mixture with another compound)
inactive: dose: 100.0 mg/kg/injection, schedule: Q04DX003 (ip), vehicle: saline with Tween-80 90 % of control

CCC(CO)Nc1nc2cc(Br)ccc2c2ccc(Br)cc12 (stereo not given)
inactive: dose: 100.0 mg/kg/injection, schedule: Q04DX003 (ip), vehicle: Klucel (hydroxypropylcellulose) (HPC) 90 % of control | dose: 200.0 mg/kg/injection, schedule: Q04DX003 (ip), vehicle: Klucel (hydroxypropylcellulose) (HPC) 87 % of control | dose: 400.0 mg/kg/injection, schedule: Q04DX003 (ip), vehicle: Klucel (hydroxypropylcellulose) (HPC) 94 % of control

O=C(/C=C/c1ccccc1)C(Cl)C(Cl)c1ccccc1 (stereo not given)
inactive: dose: 50.0 mg/kg/injection, schedule: Q01DX009 (sc), vehicle: olive oil, sesame oil, peanut oil 101 % of control | dose: 100.0 mg/kg/injection, schedule: Q01DX009 (sc), vehicle: olive oil, sesame oil, peanut oil 101 % of control | dose: 200.0 mg/kg/injection, schedule: Q01DX009 (sc), vehicle: olive oil, sesame oil, peanut oil 97 % of control

Nc1nc2n(n1)C(=O)C(=O)N2
inactive: dose: 100.0 mg/kg/injection, schedule: Q01DX005 (ip), vehicle: Klucel (hydroxypropylcellulose) (HPC) 109 % of control | dose: 100.0 mg/kg/injection, schedule: Q01DX009 (ip), vehicle: Klucel (hydroxypropylcellulose) (HPC) 101 % of control | [4] 101 % of control | dose: 200.0 mg/kg/injection, schedule: Q01DX005 (ip), vehicle: Klucel (hydroxypropylcellulose) (HPC) 98 % of control | dose: 200.0 mg/kg/injection, schedule: Q01DX009 (ip), vehicle: Klucel (hydroxypropylcellulose) (HPC) 104 % of control | [5] 96 % of control | dose: 400.0 mg/kg/injection, schedule: Q01DX005 (ip), vehicle: Klucel (hydroxypropylcellulose) (HPC) 95 % of control | dose: 400.0 mg/kg/injection, schedule: Q01DX009 (ip), vehicle: Klucel (hydroxypropylcellulose) (HPC) 96 % of control | [6] 96 % of control

NC(=O)C(NC(=O)c1ccc([N+](=O)[O-])cc1)Sc1ccccc1 (stereo not given)
inactive: [4] 109 % of control | [5] 106 % of control | [6] 101 % of control

O=C1c2cc([N+](=O)[O-])ccc2-c2cc(Cl)c(NC(=O)C(Cl)Cl)cc21
inactive: dose: 50.0 mg/kg/injection, schedule: Q01DX001 (ip), vehicle: carboxymethylcellulose (CMC) 101 % of control | [1] 104 % of control | [2] 101 % of control | [3] 104 % of control

S=P(NC1CCCCC1)(N1CC1)N1CC1
inactive: dose: 5.0 mg/kg/injection, schedule: Q01DX Z (ip), vehicle: carboxymethylcellulose (CMC) 122 % of control | dose: 20.0 mg/kg/injection, schedule: Q01DX Z (ip), vehicle: carboxymethylcellulose (CMC) 101 % of control

O/N=C1\c2ccccc2-c2cc(Br)ccc21
inactive: [1] 95 % of control | [2] 95 % of control | [3] 90 % of control

— PubChem BioAssay AID248 (DTP/NCI, 2004)
